For one data set, the system named is J774. Nature of the data set: Cytotoxicity against mouse J774 cells.
Data set [1] has as its system Leishmania donovani. Kind of data set: Antileishmanial activity against Leishmania donovani axenic amastigotes infected in mouse J774 cells measured after 72 hrs by Draq5 staining based high content screening assay. It counts as functional, organism-based. The note with it: J774, 72 h.
Data set [2] can be described thus: Selectivity index, ratio of IC50 for mouse J774 cells to IC50 for Leishmania donovani axenic amastigotes infected in mouse J774 cells. It is filed as toxicity, cell-based. The note with it: read-out: Ratio IC50.
The test system of data set [3] is Leishmania donovani. Nature of the data set: Antileishmanial activity against Leishmania donovani axenic amastigotes at 5 uM after 72 hrs by Celltiter reagent based assay relative to control. It counts as functional.
For data set [4], the system named is Leishmania donovani. Kind of data set: Antileishmanial activity against Leishmania donovani axenic amastigotes at 2.5 uM after 72 hrs by Celltiter reagent based assay relative to control. It counts as functional.

As to `CCCC[C@H]1CNC(=N)N1CC1CCC(C)CC1` (some centres not stated), the 50% inhibitory concentration (IC50) – broadly, the concentration that inhibits the measured activity by half – with J774 is 6 µM; in the data set with Leishmania donovani [1] it was 0.6 µM. For the same compound, the selectivity ratio in data set [2] is 10.
As to `N=C1NC[C@H](CCCCN2C[C@H](CC3CCCCC3)N(CCc3ccc(-c4ccccc4)cc3)C2=N)N1CCCCC1CCCCC1`, the IC50 with J774 turned out to be 20 µM; with Leishmania donovani [1], 0.3 µM. Moreover, the inhibition (as a rule, the share of the control response that was lost under treatment) at 5 µM in the data set with Leishmania donovani [3] was found to be 95%. Besides, in the data set with Leishmania donovani [4], 2.5 µM produced 70% inhibition. Further, in data set [2], the selectivity ratio stood at 69.
With `Cc1cccc(CCN2C(=N)NC[C@@H]2CCCCN2CCNC2=N)c1`, the IC50 with J774 turned out to be 50 µM; in the data set with Leishmania donovani [1] it was 0.9 µM. The selectivity ratio in data set [2] stood at 56.
Regarding `CCCCCCCN1C(=N)N(CCCC[C@H]2CNC(=N)N2CCC23CC4CC(CC(C4)C2)C3)C[C@@H]1CCCC`, the IC50 in the data set on J774 was 32 µM; with Leishmania donovani [1], > 5 µM. This compound registered an inhibition at 5 µM with Leishmania donovani [3] of 94%. For the same compound, the inhibition at 2.5 µM in the data set on Leishmania donovani [4] stood at 96%. For the same compound, the selectivity ratio in data set [2] is < 6.
Consider `N=C1NCCN1CCc1ccc(-c2ccccc2)cc1`, for which the IC50 with J774 is 15 µM; with Leishmania donovani [1] it was 4.8 µM. For the same compound, in data set [2], the selectivity ratio was found to be 3.
In the case of `CCCCCCCN1C(=N)N(CCCC[C@H]2CNC(=N)N2CCCCC2CCCCC2)C[C@H]1Cc1ccc2ccccc2c1`, the IC50 amounted to 50 µM in the data set on J774 and 1.3 µM in the data set on Leishmania donovani [1]. Moreover, the inhibition at 5 µM in the data set on Leishmania donovani [3] stood at 97%. This compound came in with an inhibition at 2.5 µM in the data set with Leishmania donovani [4] of 6%. Also, in data set [2], the selectivity ratio was determined as 38.
For the compound `N=C1NC[C@H](CCCCN2CCN(CCc3ccccc3)C2=N)N1`, the IC50 was 20 µM in the data set on J774 and 0.6 µM in the data set on Leishmania donovani [1]. Also, the selectivity ratio in data set [2] came out at 36.
In the case of `CCCC[C@H]1CN(CCCC[C@@H]2CNC(=N)N2CCC23CC4CC(CC(C4)C2)C3)C(=N)N1CCc1ccc(-c2ccccc2)cc1`, the IC50 in the data set on J774 amounted to 21 µM; with Leishmania donovani [1], 3.8 µM. Besides, the selectivity ratio in data set [2] was 6.
For `CCCCCCCN1CCN(CCCC[C@H]2CNC(=N)N2CCc2cccc(C(F)(F)F)c2)C1=N`, the values for the half-inhibitory concentration (IC50) in the data set with J774 and in the data set with Leishmania donovani [1] were 9 µM and 2.5 µM, respectively. Also, the selectivity ratio in data set [2] worked out at 4.
`N=C1NC[C@H](CCCCN2C[C@H](CC3CCCCC3)N(CCCCC3CCCCC3)C2=N)N1CCCCC1CCCCC1`: the IC50 is 24 µM in the data set with J774 and > 5 µM in the data set with Leishmania donovani [1]. The same compound registered an inhibition at 5 µM with Leishmania donovani [3] of 95%. The same compound gave an inhibition at 2.5 µM in the data set with Leishmania donovani [4] of 77%. The selectivity ratio in data set [2] is < 5.
As for `CCCC[C@H]1CNC(=N)N1CCc1ccccc1`, the IC50 in the data set on J774 amounted to 25 µM; in the data set on Leishmania donovani [1] it was 1.1 µM. Further, in data set [2], the selectivity ratio was found to be 23.
Regarding `CCCCCCCN1C(=N)N(CCCC[C@H]2CNC(=N)N2CCCCC2CCCCC2)C[C@@H]1CCCC`, the IC50 with J774 was 16 µM; in the data set with Leishmania donovani [1], 1.3 µM. This compound registered an inhibition at 5 µM in the data set with Leishmania donovani [3] of 98%. For the same compound, in the data set on Leishmania donovani [4], at 2.5 µM the inhibition was 68%. Further, the selectivity ratio in data set [2] was determined as 12.
Turning to `CCCCCCCN1C(=N)N(CCCC[C@@H]2CNC(=N)N2CCCCC2CCCCC2)C[C@@H]1CC1CCCCC1`, the IC50 is 50 µM in the data set with J774 and 8.9 µM with Leishmania donovani [1]. The selectivity ratio in data set [2] is 6.
The corresponding values for `N=C1NCCN1CCCC[C@H]1CNC(=N)N1CCCCC1CCCCC1` are 24 µM, 5.2 µM and 5.
Regarding `N=C1NCCN1CCCC[C@H]1CNC(=N)N1CCC12CC3CC(CC(C3)C1)C2`, the IC50 in the data set with J774 came to 50 µM; in the data set with Leishmania donovani [1] it was 3.5 µM. The selectivity ratio in data set [2] was found to be 14.
The corresponding values for `N=C1NCCN1CCCC[C@H]1CNC(=N)N1CCc1cccc(C(F)(F)F)c1` are 7 µM, 0.9 µM and 9.
In the case of `CCCCCCCN1C(=N)N(CCCC[C@H]2CNC(=N)N2CCc2cccc(C(F)(F)F)c2)C[C@@H]1CCCC`, the IC50 turned out to be 48 µM with J774 and 0.6 µM in the data set on Leishmania donovani [1]. Also, the inhibition at 5 µM with Leishmania donovani [3] is 26%. For the same compound, the inhibition at 2.5 µM with Leishmania donovani [4] was 9%. In addition, the selectivity ratio in data set [2] was 81.
For `CCCC[C@H]1CNC(=N)N1CCc1ccc(-c2ccccc2)cc1`, the IC50 with J774 was determined as 15 µM; with Leishmania donovani [1] it was 2.4 µM. Further, the selectivity ratio in data set [2] was determined as 6.
On to `CCCCCCCN1C(=N)N(CCCC[C@H]2CNC(=N)N2CCCCC2CCCCC2)C[C@@H]1CC1CCCCC1`, for which the half-maximal inhibitory concentration (IC50) in the data set with J774 was 25 µM; in the data set with Leishmania donovani [1], 0.7 µM. For the same compound, the inhibition at 5 µM with Leishmania donovani [3] amounted to 95%. In addition, at 2.5 µM the inhibition with Leishmania donovani [4] was 97%. Further, the selectivity ratio in data set [2] came to 36.
In the case of `CCCC[C@H]1CN(CCCC[C@H]2CNC(=N)N2)C(=N)N1`, the IC50 was 50 µM with J774 and 5 to 10 µM with Leishmania donovani [1]. The selectivity ratio in data set [2] was 5 to 10.
As to `N=C1NC[C@H](CCCCN2C[C@@H](Cc3ccc4ccccc4c3)N(CCCCC3CCCCC3)C2=N)N1CCC12CC3CC(CC(C3)C1)C2`, the IC50 was found to be 32 µM in the data set on J774 and 2.6 µM with Leishmania donovani [1]. Also, in the data set with Leishmania donovani [3], at 5 µM the inhibition was 99%. Moreover, in the data set on Leishmania donovani [4], the inhibition at 2.5 µM was determined as 99%. Further, the selectivity ratio in data set [2] was determined as 13.
For the compound `N=C1NC[C@H](CCCCN2C[C@@H](Cc3ccc4ccccc4c3)N(CCCCC3CCCCC3)C2=N)N1CCc1cccc(C(F)(F)F)c1`, the figures for the half-maximal inhibitory concentration (IC50) in the data set on J774 and with Leishmania donovani [1] were 50 µM and 1.8 µM, respectively. Further, the inhibition at 5 µM in the data set with Leishmania donovani [3] came to 75%. The compound further gave an inhibition at 2.5 µM in the data set with Leishmania donovani [4] of 6%. Moreover, the selectivity ratio in data set [2] worked out at 28.
Turning to `CCCC[C@H]1CN(CCCC[C@H]2CNC(=N)N2CCC23CC4CC(CC(C4)C2)C3)C(=N)N1CCc1ccc(-c2ccccc2)cc1`, the figures for the IC50 with J774 and with Leishmania donovani [1] were 22 µM and 0.9 µM, respectively. Moreover, 5 µM produced 0% inhibition in the data set on Leishmania donovani [3]. The same compound registered an inhibition at 2.5 µM with Leishmania donovani [4] of 0%. Besides, the selectivity ratio in data set [2] was found to be 25.
Take `N=C1NC[C@H](CCCCN2CCN(CCc3ccc(-c4ccccc4)cc3)C2=N)N1`: the IC50 in the data set with J774 is 50 µM; in the data set with Leishmania donovani [1] it was 4.9 µM. Further, in data set [2], the selectivity ratio came out at 10.
`CCCC[C@H]1CN(CCCC[C@H]2CNC(=N)N2CCC23CC4CC(CC(C4)C2)C3)C(=N)N1CCCCC1CCCCC1`: the values for the IC50 in the data set with J774 and in the data set with Leishmania donovani [1] were 27 µM and 0.6 µM, respectively. In the data set with Leishmania donovani [3], this compound came in with an inhibition at 5 µM of 8%. This compound also came in with an inhibition at 2.5 µM with Leishmania donovani [4] of 11%. In addition, the selectivity ratio in data set [2] amounted to 41.
`CCCC[C@H]1CN(CCCC[C@H]2CNC(=N)N2CCC23CC4CC(CC(C4)C2)C3)C(=N)N1`: the IC50 in the data set with J774 was determined as 13 µM; in the data set with Leishmania donovani [1], 4.2 µM. Besides, the selectivity ratio in data set [2] was 3.
`CCCCCCCN1C(=N)N(CCCC[C@H]2CNC(=N)N2)C[C@@H]1CC1CCCCC1`: the IC50 is 50 µM with J774 and 2.5 µM with Leishmania donovani [1]. For the same compound, the selectivity ratio in data set [2] came to 20.
The corresponding values for `Cc1ccccc1CCN1C(=N)NC[C@@H]1CCCCN1CCNC1=N` are 50 µM, 3.5 µM and 14.
As to `CCCC[C@H]1CN(CCCC[C@H]2CNC(=N)N2)C(=N)N1CCc1ccc(-c2ccccc2)cc1`, the IC50 in the data set on J774 worked out at 50 µM; with Leishmania donovani [1], 1.2 µM. In addition, the selectivity ratio in data set [2] was determined as 43.
The corresponding values for `CCCC[C@H]1CN(CCCC[C@@H]2CNC(=N)N2CCc2cccc(C(F)(F)F)c2)C(=N)N1CCCCC1CCCCC1` are 50 µM, 0.6 µM and 79.
For the compound `CCCC[C@H]1CNC(=N)N1CCC12CC3CC(CC(C3)C1)C2`, the results for the IC50 in the data set with J774 and with Leishmania donovani [1] were 12 µM and 4.7 µM, respectively. In data set [2], the selectivity ratio is 3.
The corresponding values for `CCCCCCCN1CCN(CCCC[C@H]2CNC(=N)N2CCCCC2CCCCC2)C1=N` are 6 µM, 3.5 µM and 2.
The corresponding values for `CC1CCCC(CCN2C(=N)NC[C@@H]2CCCCN2CCNC2=N)C1` (some centres not stated) are 19 µM, 1.8 µM and 10.
The corresponding values for `Cc1ccc(CCN2C(=N)NC[C@@H]2CCCCN2CCNC2=N)cc1` are 22 µM, 3.9 µM and 6.
For `N=C1N[C@@H](CC2CCCCC2)CN1CCCC[C@H]1CNC(=N)N1CCCCC1CCCCC1`, the IC50 with J774 worked out at 27 µM; in the data set on Leishmania donovani [1], 1.8 µM. Further, the selectivity ratio in data set [2] was found to be 16.
On to `N=C1N(CCCC[C@H]2CNC(=N)N2CCC23CC4CC(CC(C4)C2)C3)CCN1CCc1ccc(-c2ccccc2)cc1`, for which the IC50 with J774 was determined as 23 µM; in the data set with Leishmania donovani [1], 0.7 µM. Moreover, the selectivity ratio in data set [2] was found to be 33.
Take `CCCCCCCN1CCN(CCCC[C@H]2CNC(=N)N2)C1=N`: the IC50 was found to be 13 µM in the data set on J774 and 10 µM in the data set with Leishmania donovani [1]. In data set [2], the selectivity ratio was 1.
The corresponding values for `CC1CCC(CCN2C(=N)NC[C@@H]2CCCCN2CCNC2=N)CC1` (some centres not stated) are 17 µM, 0.6 µM and 28.
The corresponding values for `N=C1NCCN1CCc1ccccc1` are 8 µM, 10 µM and 1.
The corresponding values for `CC1CCC(CN2C(=N)NC[C@@H]2CCCCN2CCNC2=N)CC1` (some centres not stated) are 6 µM, 4.4 µM and 1.
As for `CCCCCCCN1C(=N)N(CCCC[C@H]2CNC(=N)N2)C[C@@H]1CCCC`, the values for the IC50 in the data set on J774 and with Leishmania donovani [1] were 22 µM and 1.3 µM, respectively. In addition, the selectivity ratio in data set [2] came to 17.
The corresponding values for `CCCC[C@H]1CN(CCCC[C@H]2CNC(=N)N2CCc2cccc(C(F)(F)F)c2)C(=N)N1` are 11 µM, 3.5 µM and 3.
The corresponding values for `N=C1NCCN1CCCC[C@H]1CNC(=N)N1CCc1ccccc1` are 16 µM, 1.2 µM and 13.
Regarding `N=C1NC[C@H](CCCCN2CCNC2=N)N1`, the IC50 with J774 came out at 50 µM; in the data set with Leishmania donovani [1] it was 4.8 µM. The selectivity ratio in data set [2] is 10.
The corresponding values for `CC1CCCCC1CN1C(=N)NC[C@@H]1CCCCN1CCNC1=N` (some centres not stated) are 14 µM, 5.4 µM and 3.
